Source: patent publication US7226761B2, “Manufacture of five-carbon sugars and sugar alcohols” (Danisco Sweeteners Oy, priority 1992, dated 2007)

What was measured:
DOG1 [1] = molecular target: T1, DOG1 (Saccharomyces cerevisiae, UniProt P38774); settings: 40 mM substrate; relative to 2-deoxyglucose-6-P as 100%; cited from earlier work
T1 construct: expressed in transfected cells; host or cells: S. cerevisiae H1104 (W303-1B) transformed with plasmid B1020 (YEplac195, ADH1 promoter-DOG1-ADH1 terminator) = strain H1514; crude cell extract
T1 sequence (P38774 1-246): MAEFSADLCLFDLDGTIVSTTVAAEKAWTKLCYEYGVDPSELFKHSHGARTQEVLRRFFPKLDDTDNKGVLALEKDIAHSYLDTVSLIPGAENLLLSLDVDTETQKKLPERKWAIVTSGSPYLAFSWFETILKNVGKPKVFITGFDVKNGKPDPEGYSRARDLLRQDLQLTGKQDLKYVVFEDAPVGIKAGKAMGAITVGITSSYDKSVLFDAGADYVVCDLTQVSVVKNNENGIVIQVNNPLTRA

DOG1 [2] = molecular target: T1, DOG1; assay: Specificity of DOG1 towards sugar phosphates in yeast cell extracts (phosphate release); format: biochemical, S. cerevisiae; settings: 20 mM substrate; cell extract of H1514; relative to 2-deoxyglucose-6-P as 100%
Description: The specificity of DOG1 towards xylulose-5-P, ribulose-5-P, ribose-5-P and 2-deoxyglucose-6-P was determined using 20 mM substrate concentrations. Yeast cell extracts were prepared as described in example 15, except that 50 mM imidazole-HCl, 10 mM MgCl2 buffer, pH 6.0 was used. 10 μl of extract and 210 μl of substrate (20 mM) in the same buffer was incubated for 30 min, 30° C. The reaction was stopped with final 2% of TCA and the phosphate released was measured using ammonium molybdate (15 mM), zinc acetate (100 mM), pH 5.0 as the reagent. The formation of molybdenum blue was measured at 350 nm, and quantified by phosphate standards (Sanz, P. et al., Yeast 10:1195–1202 (1994); Bencini, D. A. et al., Anal. Biochem. 132:254–258 (1983)).

[3] = Xylulose 5-phosphate reductase (XPDH/APDH) activity assay with NADH; format: biochemical; settings: 5 mM xylulose 5-phosphate as the substrate
Description: The strain BD 170 [pGTK24(MXD2)] as well as untransformed strain BD 170 was grown overnight on either LB or LB, containing 10% glucose, cell extracts were prepared and the XDH activity measured. The assay conditions for measuring XDH activity were: 30° C., 50 mM Tris-HCI, pH 7.0, 0.2 mM NADH and 10 mM D-xylulose. Changes of absorption at 340 nm were recorded; one unit of activity was defined as the amount of enzyme that catalyzed the reduction of one […] of substrate per minute under the conditions of assay (assuming the differential absorption coefficient NADH/NAD^+ to be equal to […]). The following levels of XDH activity were measured in the strain BD170 [pGTK24(MXD2)] grown on the two media: LB—0.5 U/mgproteins, LB-glucose 0.05–0.15 U/mgprotein. Thus, glucose appeared to repress the activity of the aldolase promoter 3–10 fold. No XDH activity could be detected in the strain BD170 grown on either of the two media.
B. subtilis strain BD170 was transformed with pGTK74(LRXPDH) and pGTK74(BHDH2). The transformants were grown overnight in LB containing 25 mg/liter kanamycin, cell extract were prepared by sonication and the activity of XPDH activity was measured. The conditions for measuring the XPDH activity were similar to those used for measuring the xylitol dehydrogenase activity except that xylulose 5-phosphate was used as the substrate (usually at 5 mM concentration) instead of xylulose. The activities were approximately 0.3 U/mg protein for the XPDH from L. rhamnosus and about 0.5 U/mg protein for B. halodurans enzyme.
Enterococcus avium ATCC 35655 was cultivated at 30° C. in 5 liters of a medium containing: peptone—10 g/l, yeast extract—5 g/l, beef extract 10 g/l, K2HPO4 2 g/l, NaCl—5 g/l, MgSO4—0.02 g/l, MnCl2—0.05 g/l, ammonium citrate 2 g/l, Tween 20—1.1 ml/l, xylitol—20g/l, pH 6.5. […]

[4] = Stereospecificity of D-xylulose 5-phosphate reduction, products dephosphorylated and analyzed by HPLC; format: biochemical; settings: 10 mM xylulose 5-phosphate, 10 mM NADH, pH 7.0, 37° C.
Description: The stereospecificity of xylulose-phosphate reduction by the B. halodurans XPDH was verified by the following procedure. The reaction between D-xylulose 5-phosphate and NADH was conducted at 37° C. for several hours under the following conditions: 100 mM Tris-HC buffer, pH 7.0, 10 mM xylulose 5-phosphate, 10 mM NADH, […] the enzyme lysate. The reaction products were dephosphorylated with alkaline phosphatase and analyzed by HPLC. […] It should be noted that among the highest-scoring four homologues of the L. rhamnosus XPDH, the enzyme from B. holodurans is the least homologous. This can be interpreted as an indication that the other three homologues (SEQ ID NO:51, 52 and 53) are most probably also xylitol-phosphate dehydrogenases.
The stereospecificity of D-xylulose 5-phosphate reduction by the E. avium arabitol-phosphate dehydrogenase was verified by the following procedure. The reaction between D-xylulose 5-phosphate and NADH was conducted at 37° C. for several hours under the following conditions: 100 mM Tris-HCl buffer, pH 7.0, 10 mM xylulose 5-phosphate, 10 mM NADH, 1U of the enzyme. The reaction products were dephosphorylated with alkaline phosphatase and analyzed by HPLC. […] There are no other arabitol-phosphate dehydrogenases described in the art.
Both arabitol-phosphate dehydrogenase genes were expressed using the same tools and methods as those used for the expression of xylitol-phosphate dehydrogenases (Example 26). Briefly, the coding regions of the two arabitol-phosphate dehydrogenase genes were amplified using the chromosomal DNA of the microorganism from which the enzyme was isolated and the appropriate PCR primers. In the case of E. avium the primers were oAPDH 51 […] SEQ ID NO: 71) and the anti-sense primer oAPDH 31 […]) SEQ ID NO: 72. For B. halodurans, the sense primer was oBHDH 5 ([…], SEQ ID NO: 73) and the anti-sense primer was oBHDH 3 ([…], SEQ ID NO: 74). […] The stereospecificity of D-xylulose 5-phosphate reduction by the previously unknown enzyme from B. halodurans was determined as described in Example 30.

[5] = XDH activity assay in yeast cell extracts, reaction started with D-ribulose; format: biochemical; settings: 1 mM D-ribulose; 0.2 mM NADH; pH 7.0; cell extract
From the text: (§1) The xylitol dehydrogenases of P. stipitis, Trichoderma reesei and S. cerevisiae were investigated regarding their specificities towards their sugar substrates. Each of the XDH encoding genes was expressed on multi-copy vectors pAOS67, B1070 and B1163, respectively (see Example 12). Yeast strain H1104 (pAOS67, B1163) and H1052 (B1070) harboring each of the multi-copy vectors, H1160, H1886 and H1748, respectively, were cultivated on SCD medium lacking the appropriate selection marker (histidine, leucine, uracil, respectively). Cells were collected by centrifugation and washed twice with 100 mM sodium phosphate buffer pH 7.0. Cells were resuspended at a concentration of 500 mg/ml wet weight, corresponding approximately to 75 mg/ml dry weight, in the same buffer. 1 ml of this suspension was vortexed with 1 g glass beads (0,5 mm Ø) for 15 min. at 4° C., centrifuged in an Eppendorf centrifuge (13,000 rpm) and the supernatant was assayed. XDH activity was assayed in a medium containing 50 mM Pipes KOH pH 7.0, 0.2 mM NADH. The reaction was started by addition of D-xylulose or D-ribulose at a final concentration of 1 mM. The activity was measured by following the adsorption of NADH at 340 nm.

[6] = XDH activity assay in yeast cell extracts, reaction started with D-xylulose; format: biochemical; settings: 1 mM D-xylulose; 0.2 mM NADH; pH 7.0; cell extract
From the text: as §1

Molecule: O=CC[C@@H](O)[C@H](O)[C@H](O)COP(=O)(O)O [2-deoxyglucose-6-P, 2-deoxyglucose-6-phosphate]
- Activity reported in the literature (40 mM) (DOG1 [1]): 100%
- Relative activity (20 mM) (DOG1 [2]): 100%

Molecule: O=C[C@H](O)[C@H](O)[C@H](O)COP(=O)(O)O [ribose-5-P, ribose-5-phosphate]
- Activity reported in the literature (40 mM) (DOG1 [1]): 42%
- Relative activity (20 mM) (DOG1 [2]): 52%

Molecule: O=C(CO)[C@H](O)[C@H](O)COP(=O)(O)O [ribulose-5-P, ribulose-5-phosphate]
- Activity reported in the literature (40 mM) (DOG1 [1]): 7%
- Relative activity (20 mM) (DOG1 [2]): 6%

B1: arabitol-phosphate dehydrogenase: arabitol-phosphate dehydrogenase purified from Enterococcus avium ATCC 35655, SEQ ID NO:69 (protein)
chain: MSKTMKGVSKQAPGYDQMAFIDLSVPEATDDKVLIKVAYTGICGSDIHTFKGEYKNPTTPVVLGHEFSGQVVEVGANVTKVKVGDRVTSETTFYVCGECDYCKEKQYNLCPHRKGIGTQQNGSMANYVLAREESIHLLPDHLSYEGAAMSEPLACCVHAMYQKSHLELKDTIIIMGPGPIGLYLLQIAKEIGAFVIMTGITKDAHRLALAKKLGADVIVDTMKEDLAKVVNEITDGYGVDKVYDASGAVPAVNASLPLIRKQGQFIQVGLFANKMVDLDTESIIQREIEYIGSRSQNPYDWPIAIHLLAKGAINIDEMITKKYPLTEWREAFDKVMEGNEIKVMIESNPEEF
modifications: Bacillus halodurans
- specific activity of purified enzyme [3]: about 12 U/mgprotein
- products found in the reaction mixture / stereospecificity [4]: Only arabitol and xylulose (corresponding to the unreacted xylulose 5-phosphate) were found

B2: Saccharomyces cerevisiae XDH: enzyme having xylitol dehydrogenase activity encoded by S. cerevisiae ORF YLR070c, expressed on B1163 (protein, UniProt Q07993 1-356, looked up)
D-xylulose reductase: MTDLTTQEAIVLERPGKITLTNVSIPKISDPNEVIIQIKATGICGSDIHYYTHGRIANYVVESPMVLGHESSGIVALIGENVKTLKVGDRVALEPGIPDRFSPEMKEGRYNLDPNLKFAATPPFDGTLTKYYKTMKDFVYKLPDDVSFEEGALIEPLSVAIHANKLAKIKFGARCVVFGAGPIGLLAGKVASVFGAADVVFVDLLENKLETARQFGATHIVNSGDLPHGVTVDSVIKKAIGKKGADVVFECSGAEPCVRAGIEVCKAGGTIVQVGMGQEEIQFPISIIPTKELTFQGCFRYCQGDYSDSIELVSSRKLSLKPFITHRYSFKDAVEAFEETSHHPLNNIKTIIEGPE
- specific activity towards D-ribulose, normalized to D-xylulose activity being 100% [5]: 10%
- specific activity towards D-xylulose, normalized to D-xylulose activity being 100% [6]: 100%

B3: Pichia stipitis XDH: xylitol dehydrogenase encoded by the XYL2 gene from Pichia stipitis, expressed in yeast on pAOS67 (protein, UniProt P22144 1-363, looked up)
D-xylulose reductase: MTANPSLVLNKIDDISFETYDAPEISEPTDVLVQVKKTGICGSDIHFYAHGRIGNFVLTKPMVLGHESAGTVVQVGKGVTSLKVGDNVAIEPGIPSRFSDEYKSGHYNLCPHMAFAATPNSKEGEPNPPGTLCKYFKSPEDFLVKLPDHVSLELGALVEPLSVGVHASKLGSVAFGDYVAVFGAGPVGLLAAAVAKTFGAKGVIVVDIFDNKLKMAKDIGAATHTFNSKTGGSEELIKAFGGNVPNVVLECTGAEPCIKLGVDAIAPGGRFVQVGNAAGPVSFPITVFAMKELTLFGSFRYGFNDYKTAVGIFDTNYQNGRENAPIDFEQLITHRYKFKDAIEAYDLVRAGKGAVKCLIDGPE
- specific activity towards D-ribulose, normalized to D-xylulose activity being 100% [5]: 25%
- specific activity towards D-xylulose, normalized to D-xylulose activity being 100% [6]: 100%
